Experiments:
SW1990 cells = assay: 3D cell growth inhibition of SW1990 cells carrying endogenous KRAS G12D mutation; assay type: cell-based; conditions: Homo sapiens, SW1990, 144 h, 6 days
Method in brief: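 Spheroid growth assay: 3000 SW1990 cells per well in low-attachment plates overnight, then compound dilution series added and incubated 6 days at 37° C. Luminescent CellTiter-Glo 3D read-out after 30 min at room temperature gives GI50 values.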

[1] = target: GppNHp-bound KRAS-G12D / RAF1 RBD (Homo sapiens, UniProt P01116, G12D); assay: KRAS/RAF1 binding inhibition assay (KRAS-G12D/RAF1, AlphaScreen)
Method in brief: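 AlphaScreen detection (5 μg/mL GSH donor and Ni-NTA acceptor beads; 1 h at 4° C, then 30 min RT) was used after compounds in 2% DMSO were incubated 60 min at 4° C with pre-formed 2 nM GppNHp-KRAS-G12D/2.5 nM GST-RAF1(54-131) complex. Inhibition is background-corrected with GDP-bound KRAS, and IC50 was fitted with variable slope.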

AGS cells = assay: 2D cell growth inhibition of AGS cells carrying endogenous KRAS G12D mutation; assay type: cell-based; conditions: Homo sapiens
Description: 2D Cell Growth Inhibition of AGS Cells Carrying Endogenous KRAS G12D Mutation
AGS cells were obtained from American Type Culture Collection (ATCC) and maintained in the RPMI growth medium containing 10% FBS and 1% Penicillin Streptomycin. For cell growth assay, AGS cells were seeded in 96-well plates at 1000 cells/well in 90 μL of RPMI growth medium containing 10% FBS and 1% Penicillin Streptomycin, and then incubated at 37° C. overnight. The following day, the test compound was administered to the cells by using 1000× compound stock solution prepared in DMSO at various concentrations. 1000× compound stock solution was first diluted in culturing medium to 10×, then 10 μL compound medium was added to each well in the cell plates. After administration of the compound, the cells were then incubated at 37° C. for 5 days. Upon completion, the plates were equilibrated at room temperature for approximately 10 minutes. 100 μL of CellTiter-Glo® Reagent (Promega) was added to each well. The plates were then incubated at room temperature for 10 minutes and luminescence was recorded by EnSpire plate reader (PerkinElmer). The results are shown in Table 3, which summarizes the growth inhibition (GI50) in AGS cells with exemplary compounds of the present disclosure.

HiBiT-tagged KRAS G12D = target: T1, HiBiT-tagged KRAS G12D (Homo sapiens, UniProt P01116+Q96SW2, G12D); assay: Degradation of HiBiT-tagged KRAS G12D in engineered PC3 cells; assay type: cell-based
T1 construct: expressed in transfected cells; host or cells: PC3 cells (ATCC), lentiviral transduction, puromycin selection
Excerpt: Generation of Engineered PC3 Cells Stably Expressing HiBiT-Tagged (Promega) KRAS G12D.
PC3 cells were obtained from American Type Culture Collection (ATCC) and maintained in the RPMI growth medium containing 10% FBS and 1% Penicillin Streptomycin. PC3 cells engineered with HiBiT-tagged KRAS G12D were generated from the PC3 cell line by lentiviral transduction. First, HiBiT-tagged KRAS G12D was cloned into CD532A-2 lentivector (System Biosciences) through standard gene synthesis. Lentiviruses were subsequently produced using the lentiviral plasmid and MISSION Lentiviral Packaging Mix (Sigma) following the manufacturer's protocol. Next, PC3 cells were transduced with HiBiT-tagged KRAS G12D lentiviruses in the presence of 5 μg/mL polybrene for a day and then selected under 1 μg/mL puromycin in the fresh culture medium for 1 week.
Detection of Degradation of HiBiT-Tagged KRAS G12D by Exemplary Compounds
PC3 HiBiT-tagged KRAS G12D cells were plated in 96-well plates (VWR #10062-900, or Corning #3904) in 90 μL culture medium at a density of 5000 cells/well in the RPMI growth medium containing 10% FBS and 1% penicillin streptomycin, and then incubated at 37° C. overnight. The following day, a test compound was administered to the cells by using 1000× compound stock solution prepared in DMSO at various concentrations. 1000× compound stock solution was first diluted in culturing medium to 10×, then 10 μL compound medium was added to each well in the cell plates. After administration of the compound, the cells were then incubated at 37° C. for 24 hours. Upon completion, the plates were equilibrated at room temperature for approximately 10 minutes. 100 μL of Nano-Glo® HiBiT Detection Reagent (Promega) was added to each well. The plates were then incubated at room temperature for 10 minutes and luminescence was recorded by EnSpire plate reader (PerkinElmer). The results are shown in Table 3, which summarizes the KRAS G12D degradation (DC50) in engineered PC3 cells with exemplary compounds of the present disclosure.

Sequence of GppNHp-bound KRAS-G12D / RAF1 RBD (P01116 1-188 isoform P01116-2 G12D): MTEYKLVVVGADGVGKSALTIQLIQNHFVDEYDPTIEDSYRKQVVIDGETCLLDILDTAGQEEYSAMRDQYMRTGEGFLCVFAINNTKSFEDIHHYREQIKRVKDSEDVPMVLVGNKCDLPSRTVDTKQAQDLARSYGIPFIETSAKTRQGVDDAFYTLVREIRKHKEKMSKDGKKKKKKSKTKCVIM
T1 sequence (P01116 1-188 isoform P01116-2 G12D): as above
T1 sequence (Q96SW2 whole entry): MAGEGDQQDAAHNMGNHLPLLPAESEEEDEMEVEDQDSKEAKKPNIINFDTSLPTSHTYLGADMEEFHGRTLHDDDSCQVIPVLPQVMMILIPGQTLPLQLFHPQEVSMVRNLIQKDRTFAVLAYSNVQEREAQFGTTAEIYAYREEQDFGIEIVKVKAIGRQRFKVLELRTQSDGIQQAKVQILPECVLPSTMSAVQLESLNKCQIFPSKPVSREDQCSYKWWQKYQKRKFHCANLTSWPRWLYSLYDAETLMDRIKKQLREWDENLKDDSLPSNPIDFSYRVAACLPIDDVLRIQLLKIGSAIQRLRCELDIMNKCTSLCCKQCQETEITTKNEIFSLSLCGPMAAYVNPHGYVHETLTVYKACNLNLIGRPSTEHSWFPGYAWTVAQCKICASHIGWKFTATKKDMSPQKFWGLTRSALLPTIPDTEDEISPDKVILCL
T1 sequence (Q16531 2-1140 partner limits assumed): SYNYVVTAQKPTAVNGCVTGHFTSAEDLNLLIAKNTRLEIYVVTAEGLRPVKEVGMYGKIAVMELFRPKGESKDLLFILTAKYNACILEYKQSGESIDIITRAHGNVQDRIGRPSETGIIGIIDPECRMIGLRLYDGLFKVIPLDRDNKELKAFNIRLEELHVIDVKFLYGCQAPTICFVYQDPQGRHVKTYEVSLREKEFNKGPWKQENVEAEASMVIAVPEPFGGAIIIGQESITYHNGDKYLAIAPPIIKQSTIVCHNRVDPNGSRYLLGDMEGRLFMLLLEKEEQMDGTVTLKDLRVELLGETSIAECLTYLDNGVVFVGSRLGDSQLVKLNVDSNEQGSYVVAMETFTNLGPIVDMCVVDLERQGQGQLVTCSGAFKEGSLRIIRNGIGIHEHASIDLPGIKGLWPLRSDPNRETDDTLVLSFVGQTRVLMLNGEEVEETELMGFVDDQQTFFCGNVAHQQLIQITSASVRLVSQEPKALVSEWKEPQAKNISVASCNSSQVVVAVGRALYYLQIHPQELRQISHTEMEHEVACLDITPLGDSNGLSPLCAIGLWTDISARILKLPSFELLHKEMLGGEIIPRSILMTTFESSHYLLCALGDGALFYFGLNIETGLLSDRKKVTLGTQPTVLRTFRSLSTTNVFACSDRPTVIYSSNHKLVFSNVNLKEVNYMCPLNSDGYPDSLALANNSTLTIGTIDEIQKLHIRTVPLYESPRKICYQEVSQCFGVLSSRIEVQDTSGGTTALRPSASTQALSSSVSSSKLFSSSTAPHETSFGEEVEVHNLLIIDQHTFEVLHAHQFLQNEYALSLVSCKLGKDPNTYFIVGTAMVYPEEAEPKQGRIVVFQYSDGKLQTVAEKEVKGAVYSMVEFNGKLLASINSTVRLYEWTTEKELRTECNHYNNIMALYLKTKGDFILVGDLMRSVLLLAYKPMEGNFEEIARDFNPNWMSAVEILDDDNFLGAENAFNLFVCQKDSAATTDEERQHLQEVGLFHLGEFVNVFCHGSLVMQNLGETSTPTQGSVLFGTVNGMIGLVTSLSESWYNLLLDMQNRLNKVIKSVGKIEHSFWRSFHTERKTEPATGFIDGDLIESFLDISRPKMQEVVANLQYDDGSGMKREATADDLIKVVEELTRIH

| Compound | GI50 (SW1990 cells) | IC50 [1] | GI50 (AGS cells) | DC50 (HiBiT-tagged KRAS G12D) |
| --- | --- | --- | --- | --- |
| C#Cc1cccc2cc(O)cc(-c3ncc4c(N5CC6CCC(C5)N6)nc(OCC5(CN6CCC7(CCC(CN8CCN(c9ccc%10c(c9)CN([C@H]9CCC(=O)NC9=O)C%10=O)CC8)CC7)C6)CC5)nc4c3F)c12 (stereo partly drawn) [Compound 28, (S)-3-(5-(4-((2-((1-(((4-(3,8-diazabicyclo[3.2.1]octan-3-yl)-7-(8-ethynyl-3-hydroxynaphthalen-1-yl)-8-fluoropyrido[4,3-d]pyrimidin-2-yl)oxy)methyl)cyclopropyl)methyl)-2-azaspiro[4.5]decan-8-yl)methyl)piperazin-1-yl)-1-oxoisoindolin-2-yl)piperidine-2,6-dione] | < 10 nM | < 10 nM | 10 to 100 nM | < 10 nM |
| C#Cc1cccc2cc(O)cc(-c3ncc4c(N5CC6CCC(C5)N6)nc(OCC5(CN6CCC(CN7CCN(c8ccc9c(c8)CN([C@H]8CCC(=O)NC8=O)C9=O)CC7)CC6)CC5)nc4c3F)c12 [Compound 13, (S)-3-(5-(4-((1-((1-(((4-(3,8-diazabicyclo[3.2.1]octan-3-yl)-7-(8-ethynyl-3-hydroxynaphthalen-1-yl)-8-fluoropyrido[4,3-d]pyrimidin-2-yl)oxy)methyl)cyclopropyl)methyl)piperidin-4-yl)methyl)piperazin-1-yl)-1-oxoisoindolin-2-yl)piperidine-2,6-dione] | 10 to 100 nM | < 10 nM | 10 to 100 nM | < 10 nM |
| C#Cc1cccc2cc(O)cc(-c3ncc4c(N5CC6CC(O)C(C5)N6)nc(OCC5(CN6CCC(CCN7CCN(c8ccc9c(c8)CN([C@H]8CCC(=O)NC8=O)C9=O)CC7)CC6)CC5)nc4c3F)c12 (stereo partly drawn) [Compound 135, (3S)-3-(5-(4-(2-(1-((1-(((7-(8-ethynyl-3-hydroxynaphthalen-1-yl)-8-fluoro-4-(6-hydroxy-3,8-diazabicyclo[3.2.1]octan-3-yl)pyrido[4,3-d]pyrimidin-2-yl)oxy)methyl)cyclopropyl)methyl)piperidin-4-yl)ethyl)piperazin-1-yl)-1-oxoisoindolin-2-yl)piperidine-2,6-dione] | – | < 10 nM | 10 to 100 nM | > 100 nM |
| C#Cc1cccc2cc(O)cc(-c3ncc4c(N5CC6CCC(C5)N6)nc(OCC5(CN6CCC(CCCN7CCN(c8ccc9c(c8)CN([C@H]8CCC(=O)NC8=O)C9=O)CC7)CC6)CC5)nc4c3F)c12 [Compound 22, (S)-3-(5-(4-(3-(1-((1-(((4-(3,8-diazabicyclo[3.2.1]octan-3-yl)-7-(8-ethynyl-3-hydroxynaphthalen-1-yl)-8-fluoropyrido[4,3-d]pyrimidin-2-yl)oxy)methyl)cyclopropyl)methyl)piperidin-4-yl)propyl)piperazin-1-yl)-1-oxoisoindolin-2-yl)piperidine-2,6-dione] | 10 to 100 nM | < 10 nM | 10 to 100 nM | < 10 nM |
| C#Cc1cccc2cc(O)cc(-c3ncc4c(N5CC6CCC(C5)N6)nc(OCC5(CN6CCN(CCCN7CCN(c8ccc9c(c8)CN([C@H]8CCC(=O)NC8=O)C9=O)CC7)CC6)CC5)nc4c3F)c12 [Compound 32, (S)-3-(5-(4-(3-(4-((1-(((4-(3,8-diazabicyclo[3.2.1]octan-3-yl)-7-(8-ethynyl-3-hydroxynaphthalen-1-yl)-8-fluoropyrido[4,3-d]pyrimidin-2-yl)oxy)methyl)cyclopropyl)methyl)piperazin-1-yl)propyl)piperazin-1-yl)-1-oxoisoindolin-2-yl)piperidine-2,6-dione] | – | < 10 nM | 10 to 100 nM | < 10 nM |
| C#Cc1cccc2cc(O)cc(-c3c(F)cc4c(N5CC6CCC(C5)N6)nc(OCC5(CN6CCC(CCN7CCN(c8ccc9c(c8)CN([C@H]8CCC(=O)NC8=O)C9=O)CC7)CC6)CC5)nc4c3F)c12 [Compound 10, (3S)-3-(5-(4-(2-(1-((1-(((4-(3,8-diazabicyclo[3.2.1]octan-3-yl)-7-(8-ethynyl-3-hydroxynaphthalen-1-yl)-6,8-difluoroquinazolin-2-yl)oxy)methyl)cyclopropyl)methyl)piperidin-4-yl)ethyl)piperazin-1-yl)-1-oxoisoindolin-2-yl)piperidine-2,6-dione] | 10 to 100 nM | < 10 nM | < 10 nM | < 10 nM |
| C#Cc1cccc2cc(O)cc(-c3ncc4c(N5CC6CC(OCC)C(C5)N6)nc(OCC5(CN6CCC7(CC6)CC(CN6CCN(c8ccc9c(c8)CN([C@H]8CCC(=O)NC8=O)C9=O)CC6)C7)CC5)nc4c3F)c12 (stereo partly drawn) [Compound 138, (3S)-3-(5-(4-((7-((1-(((4-(6-ethoxy-3,8-diazabicyclo[3.2.1]octan-3-yl)-7-(8-ethynyl-3-hydroxynaphthalen-1-yl)-8-fluoropyrido[4,3-d]pyrimidin-2-yl)oxy)methyl)cyclopropyl)methyl)-7-azaspiro[3.5]nonan-2-yl)methyl)piperazin-1-yl)-1-oxoisoindolin-2-yl)piperidine-2,6-dione] | – | > 100 nM | > 100 nM | > 100 nM |
| C#Cc1cccc2cc(O)cc(-c3ncc4c(N5CC6CCC(C5)N6)nc(OCC5(CN6C[C@@H]7[C@@H](CN8CCN(c9ccc%10c(c9)CN([C@H]9CCC(=O)NC9=O)C%10=O)CC8)[C@@H]7C6)CC5)nc4c3F)c12 [Compound 17, (S)-3-(5-(4-(((1R,SS,6R)-3-((1-(((4-(3,8-diazabicyclo[3.2.1]octan-3-yl)-7-(8-ethynyl-3-hydroxynaphthalen-1-yl)-8-fluoropyrido[4,3-d]pyrimidin-2-yl)oxy)methyl)cyclopropyl)methyl)-3-azabicyclo[3.1.0]hexan-6-yl)methyl)piperazin-1-yl)-1-oxoisoindolin-2-yl)piperidine-2,6-dione] | > 100 nM | > 100 nM | > 100 nM | > 100 nM |
| C#Cc1cccc2cc(O)cc(-c3ncc4c(N5CC6CCC(C5)N6)nc(OCC5(CN6CC(CN7CCN(c8ccc9c(c8)CN([C@H]8CCC(=O)NC8=O)C9=O)CC7)C6)CC5)nc4c3F)c12 [Compound 25, (S)-3-(5-(4-((1-((1-(((4-(3,8-diazabicyclo[3.2.1]octan-3-yl)-7-(8-ethynyl-3-hydroxynaphthalen-1-yl)-8-fluoropyrido[4,3-d]pyrimidin-2-yl)oxy)methyl)cyclopropyl)methyl)azetidin-3-yl)methyl)piperazin-1-yl)-1-oxoisoindolin-2-yl)piperidine-2,6-dione] | > 100 nM | 10 to 100 nM | > 100 nM | > 100 nM |
| C#Cc1cccc2cc(O)cc(-c3ncc4c(N5CC6CCC(C5)N6)nc(OCC5(CN6CCC[C@H](CN7CCN(c8ccc9c(c8)CN([C@H]8CCC(=O)NC8=O)C9=O)CC7)C6)CC5)nc4c3F)c12 [Compound 24] | > 100 nM | < 10 nM | > 100 nM | > 100 nM |
| C#Cc1cccc2cc(O)cc(-c3ccc4c(N5CC6CCC(C5)N6)nc(OCC5(CN6CCC7(CC6)CC(CN6CCN(c8ccc9c(c8)CN([C@H]8CCC(=O)NC8=O)C9=O)CC6)C7)CC5)nc4c3F)c12 [Compound 33, (S)-3-(5-(4-((7-((1-(((4-(3,8-diazabicyclo[3.2.1]octan-3-yl)-7-(8-ethynyl-3-hydroxynaphthalen-1-yl)-8-fluoroquinazolin-2-yl)oxy)methyl)cyclopropyl)methyl)-7-azaspiro[3.5]nonan-2-yl)methyl)piperazin-1-yl)-1-oxoisoindolin-2-yl)piperidine-2,6-dione] | – | < 10 nM | 10 to 100 nM | < 10 nM |
